Experimental data taken from article PMC5578959, “Selective LRRK2 kinase inhibition reduces phosphorylation of endogenous Rab10 and Rab12 in human peripheral mononuclear blood cells” (Scientific Reports, 2017).
“And” between values parts separate entries of the source, which are not always exact repeats. Equal entries are not always repeated.

Assays:
Test in all cases: KiNativ profiling in human PBMCs
Type in all cases: binding
[1] = tested on: T1, PFTAIRE1; settings: Lys1
T1 construct: purchased ActivX Technologies (KiNativ)
Outline: (§1)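 Steps: expose living PBMCs to compound (0.1 µM or 1 µM); perform KiNativ-based kinase profiling.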

[2] = tested on: T2, GSK3B; settings: Lys2
T2 construct: purchased ActivX Technologies (KiNativ)
Outline: as §1

[3] = tested on: p38d,p38g; settings: Lys2
Outline: as §1

[4] = tested on: T3, MAP3K5; settings: Lys2
T3 construct: purchased ActivX Technologies (KiNativ)
Outline: as §1

[5] = tested on: T4, PAN3; settings: Protein Kinase Domain
T4 construct: purchased ActivX Technologies (KiNativ)
Outline: as §1

[6] = tested on: p70S6K,p70S6Kb; settings: ATP Loop
Outline: as §1

[7] = tested on: PKCa,PKCb; settings: Lys2
Outline: as §1

[8] = tested on: T5, PKD2; settings: Lys1
T5 construct: purchased ActivX Technologies (KiNativ)
Outline: as §1

[9] = tested on: T6, GCN2; settings: Lys2
T6 construct: purchased ActivX Technologies (KiNativ)
Outline: as §1

[10] = tested on: FYN,SRC,YES; settings: Activation Loop
Outline: as §1

[11] = tested on: T7, TBK1; settings: Lys1
T7 construct: purchased ActivX Technologies (KiNativ)
Outline: as §1

[12] = tested on: T8, LATS2; settings: Lys2
T8 construct: purchased ActivX Technologies (KiNativ)
Outline: as §1

[13] = tested on: ABL,ARG; settings: Activation Loop
Outline: as §1

[14] = tested on: T9, PRPK; settings: ATP Loop
T9 construct: purchased ActivX Technologies (KiNativ)
Outline: as §1

[15] = tested on: T10, TLK1
T10 construct: purchased ActivX Technologies (KiNativ)
Outline: as §1

[16] = tested on: T11, IKKe; settings: Lys1
T11 construct: purchased ActivX Technologies (KiNativ)
Outline: as §1

[17] = tested on: PCTAIRE1,PCTAIRE3; settings: Lys2
Outline: as §1

[18] = tested on: T12, RSK3 domain1; settings: Lys2
T12 construct: RSK3 domain1; purchased ActivX Technologies (KiNativ)
Outline: as §1

[19] = tested on: T13, PIK3C3; settings: ATP
T13 construct: purchased ActivX Technologies (KiNativ)
Outline: as §1

[20] = tested on: MAP3K2,MAP3K3; settings: Lys2
Outline: as §1

[21] = tested on: T14, FRAP; settings: ATP
T14 construct: purchased ActivX Technologies (KiNativ)
Outline: as §1

[22] = tested on: T15, MAP3K1; settings: Lys2
T15 construct: purchased ActivX Technologies (KiNativ)
Outline: as §1

[23] = tested on: T16, PCTAIRE2; settings: Lys2
T16 construct: purchased ActivX Technologies (KiNativ)
Outline: as §1

[24] = tested on: T17, NEK9
T17 construct: purchased ActivX Technologies (KiNativ)
Outline: as §1

[25] = tested on: T18, PIK3CG; settings: ATP
T18 construct: purchased ActivX Technologies (KiNativ)
Outline: as §1

[26] = tested on: T19, MAP3K4; settings: Lys2
T19 construct: purchased ActivX Technologies (KiNativ)
Outline: as §1

[27] = tested on: T20, HCK; settings: Activation Loop
T20 construct: purchased ActivX Technologies (KiNativ)
Outline: as §1

[28] = tested on: T21, STLK5
T21 construct: purchased ActivX Technologies (KiNativ)
Outline: as §1

[29] = tested on: T22, IRE1; settings: Lys2
T22 construct: purchased ActivX Technologies (KiNativ)
Outline: as §1

[30] = tested on: T23, LOK
T23 construct: purchased ActivX Technologies (KiNativ)
Outline: as §1

[31] = tested on: T24, NEK8; settings: Lys2
T24 construct: purchased ActivX Technologies (KiNativ)
Outline: as §1

[32] = tested on: T25, LRRK2; settings: Lys2
T25 construct: purchased ActivX Technologies (KiNativ)
Outline: as §1

[33] = tested on: T26, GCK
T26 construct: purchased ActivX Technologies (KiNativ)
Outline: as §1

[34] = tested on: T27, MAP3K6; settings: Lys2
T27 construct: purchased ActivX Technologies (KiNativ)
Outline: as §1

[35] = tested on: T28, RIPK3; settings: Lys2
T28 construct: purchased ActivX Technologies (KiNativ)
Outline: as §1

[36] = tested on: T29, LATS1
T29 construct: purchased ActivX Technologies (KiNativ)
Outline: as §1

[37] = tested on: T30, FER
T30 construct: purchased ActivX Technologies (KiNativ)
Outline: as §1

Which results are given for `Cc1cccc(-c2cc(Nc3ccn(C)n3)nc3[nH]cc(C#N)c23)c1` [Lu AF58786]?
Inhibition ([1]; 0.1µM): 5.8%; Inhibition ([1]; 1µM): -10.2%; Inhibition ([2]; 0.1µM): 9.9%; Inhibition ([2]; 1µM): 21.4%; Inhibition ([3]; 0.1µM): 7.1%; Inhibition ([3]; 1µM): -0.541%; Inhibition ([4]; 0.1µM): 4.3%; Inhibition ([4]; 1µM): -3.2%; Inhibition ([5]; 0.1µM): -11.9%; Inhibition ([5]; 1µM): -9.9%; Inhibition ([6]; 0.1µM): 3.7%; Inhibition ([6]; 1µM): -2.7%; Inhibition ([7]; 0.1µM): -5.7%; Inhibition ([7]; 1µM): -0.9%; Inhibition ([8]; 0.1µM): 14.5%; Inhibition ([8]; 1µM): 15.3%; Inhibition ([9]; 0.1µM): -20.3%; Inhibition ([9]; 1µM): -15.5%; Inhibition ([10]; 0.1µM): -6.7%; Inhibition ([10]; 1µM): -2.5%; Inhibition ([11]; 0.1µM): 10.1%; Inhibition ([11]; 1µM): 26.3%; Inhibition ([12]; 0.1µM): 9.3%; Inhibition ([12]; 1µM): -1.5%; Inhibition ([13]; 0.1µM): -81.9%; Inhibition ([13]; 1µM): -7.3%; Inhibition ([14]; 0.1µM): 1.0%; Inhibition ([14]; 1µM): 8.9%; Inhibition ([15]; 0.1µM, Lys1): 2.2%; Inhibition ([15]; 0.1µM, Lys2): 16.2%; Inhibition ([15]; 1µM, Lys1): 15.4%; Inhibition ([15]; 1µM, Lys2): 4.7%; Inhibition ([16]; 0.1µM): 8.3%; Inhibition ([16]; 1µM): -0.117%; Inhibition ([17]; 0.1µM): 5.6%; Inhibition ([17]; 1µM): -11.1%; Inhibition ([18]; 0.1µM): 12.9%; Inhibition ([18]; 1µM): 26.9%; Inhibition ([19]; 0.1µM): 1.5%; Inhibition ([19]; 1µM): -10.0%; Inhibition ([20]; 0.1µM): 6.3%; Inhibition ([20]; 1µM): 0.325%; Inhibition ([21]; 0.1µM): 5.2%; Inhibition ([21]; 1µM): -3.4%; Inhibition ([22]; 0.1µM): 9.1%; Inhibition ([22]; 1µM): 0.247%; Inhibition ([23]; 0.1µM): 18.1%; Inhibition ([23]; 1µM): -0.164%; Inhibition ([24]; 0.1µM, Lys1): 8.4%; Inhibition ([24]; 0.1µM, Lys2): 12.6%; Inhibition ([24]; 1µM, Lys1): -0.0314%; Inhibition ([24]; 1µM, Lys2): -3.7%; Inhibition ([25]; 0.1µM): 8.8%; Inhibition ([25]; 1µM): 2.1%; Inhibition ([26]; 0.1µM): 11.1%; Inhibition ([26]; 1µM): -2.7%; Inhibition ([27]; 0.1µM): -0.451%; Inhibition ([27]; 1µM): -12.8%; Inhibition ([28]; 0.1µM, Activation Loop): 3.4%; Inhibition ([28]; 0.1µM, Lys2): 16.0%; Inhibition ([28]; 1µM, Activation Loop): -4.3%; Inhibition ([28]; 1µM, Lys2): 19.2%; Inhibition ([29]; 0.1µM): -7.8%; Inhibition ([29]; 1µM): -11.6%; Inhibition ([30]; 0.1µM, Lys1): 13.2%; Inhibition ([30]; 0.1µM, Lys2): 1.8%; Inhibition ([30]; 1µM, Lys1): 9.9%; Inhibition ([31]; 0.1µM): -2.3%; Inhibition ([31]; 1µM): -10.4%; Inhibition ([32]; 0.1 µM): 83% and 83.4%; Inhibition ([32]; 1 µM): 93% and 93.4%; Inhibition ([33]; 0.1µM, Lys1): 14.1%; Inhibition ([33]; 0.1µM, Lys2): 16.9%; Inhibition ([33]; 1µM, Lys1): 5.5%; Inhibition ([33]; 1µM, Lys2): -3.1%; Inhibition ([34]; 0.1µM): 31.4%; Inhibition ([34]; 1µM): 4.4%; Inhibition ([35]; 0.1µM): 2.4%; Inhibition ([35]; 1µM): -10.9%; Inhibition ([36]; 0.1µM, Lys1): 5.7%; Inhibition ([36]; 0.1µM, Lys2): -2.7%; Inhibition ([36]; 1µM, Lys1): 11.6%; Inhibition ([37]; 0.1µM, Activation Loop): -5.4%; Inhibition ([37]; 0.1µM, Lys1): 1.7%; Inhibition ([37]; 1µM, Activation Loop): -16.1%; Inhibition ([37]; 1µM, Lys1): 5.0%
